# Results: patent US20170334899A1, “AMINO-SUBSTITUTED ISOTHIAZOLES” (Bayer Pharma Aktiengesellschaft, priority 2014, published 2017)
# System: human cervical tumor cell line HeLa (ATCC CCL-2)
# Experiment: SAC-Formation - Paclitaxel-Induced Assay
# Assay type: cell-based
# Settings: Homo sapiens, HeLa, 24 h, HeLa cells, paclitaxel 0.05 μM, test range 0.005 μM-20 μM, read-out: IC50 [mol/l] SAC-Formation - Paclitaxel-Induced Assay
# Procedure, shortened: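 HeLa cells incubated overnight at 37° C, then given paclitaxel (0.05 μM final) plus test compound (0.005–20 μM, 0.5% DMSO) together for 24 h at 37° C. Fixed cells stained for phospho-histone H3 Ser10 (mitotic cells) and Hoechst 33342 (cell count); imaging-derived mitotic index fitted by four-parameter Hill equation.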
row,Structure (SMILES),IC50
1,"Cc1nsc(Nc2ccc(C#N)cn2)c1C(=O)Nc1ccc(F)c(C(N)=O)c1 [Example 203, N-(3-carbamoyl-4-fluorophenyl)-5-[(5-cyanopyridin-2-yl)amino]-3-methyl-1,2-thiazole-4-carboxamide]",8.5 µM
2,"Cc1nsc(Nc2cncc(C(F)(F)F)n2)c1C(=O)Nc1ccc(F)c(C(N)=O)c1 [Example 204, N-(3-carbamoyl-4-fluorophenyl)-3-methyl-5-{[6-(trifluoromethyl)pyrazin-2-yl]amino}-1,2-thiazole-4-carboxamide]",0.45 µM
3,"CC(=O)Nc1cc(NC(=O)c2c(C)nsc2Nc2cnccn2)ccc1F [Example 205, N-(3-acetamido-4-fluorophenyl)-3-methyl-5-(pyrazin-2-ylamino)-1,2-thiazole-4-carboxamide]",20 µM
4,"Cc1nsc(Nc2cncc(C(F)(F)F)n2)c1C(=O)Nc1ccc(OCCCN)nc1 [Example 209, N-[6-(3-aminopropoxy)pyridin-3-yl]-3-methyl-5-{[6-(trifluoromethyl)pyrazin-2-yl]amino}-1,2-thiazole-4-carboxamide]",2.3 µM
5,"CNS(=O)(=O)c1ccc(NC(=O)c2c(C)nsc2Nc2cc(C#N)ccn2)cc1 [Example 210, 5-[(4-cyanopyridin-2-yl)amino]-3-methyl-N-[4-(methylsulfamoyl)phenyl]-1,2-thiazole-4-carboxamide]",7.7 µM
6,"CNS(=O)(=O)c1ccc(NC(=O)c2c(C)nsc2Nc2cnc(C(F)(F)F)cn2)cc1 [Example 212, 3-methyl-N-[4-(methylsulfamoyl)phenyl]-5-{[5-(trifluoromethyl)pyrazin-2-yl]amino}-1,2-thiazole-4-carboxamide]",4.1 µM
7,"Cc1nsc(Nc2cnc(C(F)(F)F)cn2)c1C(=O)Nc1ccc(C(=O)NCCN2CCCC(F)C2)cc1 (stereo not drawn) [Example 213, N-(4-{[2-(3-fluoropiperidin-1-yl)ethyl]carbamoyl}phenyl)-3-methyl-5-{[5-(trifluoromethyl)pyrazin-2-yl]amino}-1,2-thiazole-4-carboxamide]",2.9 µM
8,"Cc1nsc(Nc2cncc(C(F)(F)F)n2)c1C(=O)Nc1ccc(C(=O)NCCN2CCCC(F)(F)C2)cc1 [Example 214, N-(4-{[2-(3,3-difluoropiperidin-1-yl)ethyl]carbamoyl}phenyl)-3-methyl-5-{[6-(trifluoromethyl)pyrazin-2-yl]amino}-1,2-thiazole-4-carboxamide]",1.6 µM
9,"Cc1nsc(Nc2cncc(C(F)(F)F)n2)c1C(=O)Nc1ccc(OCCNC(=O)OC(C)(C)C)c(F)c1 [Example 216, tert-butyl [2-(2-fluoro-4-{[(3-methyl-5-{[6-(trifluoromethyl)pyrazin-2-yl]amino}-1,2-thiazol-4-yl)carbonyl]amino}phenoxy)ethyl]carbamate]",0.14 µM
10,"Cc1nsc(Nc2cnc(C(F)(F)F)cn2)c1C(=O)Nc1ccc(OC2CCN(C(=O)OC(C)(C)C)CC2)c(F)c1 [Example 217, tert-butyl 4-(2-fluoro-4-{[(3-methyl-5-{[5-(trifluoromethyl)pyrazin-2-yl]amino}-1,2-thiazol-4-yl)carbonyl]amino}phenoxy)piperidine-1-carboxylate]",0.41 µM
11,"Cc1nsc(Nc2cncc(C(F)(F)F)n2)c1C(=O)Nc1ccc(OC2CCN(C(C)C)CC2)nc1 [Example 218, N-{6-[(1-isopropylpiperidin-4-yl)oxy]pyridin-3-yl}-3-methyl-5-{[6-(trifluoromethyl)pyrazin-2-yl]amino}-1,2-thiazole-4-carboxamide]",3.9 µM
12,"Cc1nsc(Nc2cncc(C(F)(F)F)n2)c1C(=O)Nc1ccc(OC2CCN(C)CC2)nc1 [Example 219, 3-methyl-N-{6-[(1-methylpiperidin-4-yl)oxy]pyridin-3-yl}-5-{[6-(trifluoromethyl)pyrazin-2-yl]amino}-1,2-thiazole-4-carboxamide]",0.66 µM
13,"Cc1nsc(Nc2cnc(C(F)(F)F)cn2)c1C(=O)Nc1ccc(OC2CCN(C)CC2)nc1 [Example 220, 3-methyl-N-{6-[(1-methylpiperidin-4-yl)oxy]pyridin-3-yl}-5-{[5-(trifluoromethyl)pyrazin-2-yl]amino}-1,2-thiazole-4-carboxamide]",0.97 µM
14,"Cc1nsc(Nc2cnc(C(F)(F)F)cn2)c1C(=O)Nc1ccc(OCCN)c(F)c1 [Example 221, 3-N-[4-(2-aminoethoxy)-3-fluorophenyl]-3-methyl-5-{[5-(trifluoromethyl)pyrazin-2-yl]amino}-1,2-thiazole-4-carboxamide]",0.5 µM
15,"Cc1nsc(Nc2cncc(C(F)(F)F)n2)c1C(=O)Nc1ccc(C(=O)NC2CCN(C(=O)OC(C)(C)C)CC2)cc1 [Example 222, tert-butyl 4-[(4-{[(3-methyl-5-{[6-(trifluoromethyl)pyrazin-2-yl]amino}-1,2-thiazol-4-yl)carbonyl]amino}benzoyl)amino] piperidine-1-carboxylate]",0.82 µM
16,"Cc1nsc(Nc2cncc(C(F)(F)F)n2)c1C(=O)Nc1ccc(OC2CCN(CC(F)F)CC2)c(F)c1 [Example 224, N-(4-{[1-(2,2-difluoroethyl)piperidin-4-yl]oxy}-3-fluorophenyl)-3-methyl-5-{[6-(trifluoromethyl)pyrazin-2-yl]amino}-1,2-thiazole-4-carboxamide]",0.18 µM
17,"Cc1nsc(Nc2cncc(C(F)(F)F)n2)c1C(=O)Nc1ccc(C(=O)NC2CCN(CC(F)F)CC2)cc1 [Example 225, N-N-(4-{[1-(2,2-difluoroethyl)piperidin-4-yl]carbamoyl}phenyl)-3-methyl-5-{[6-(trifluoromethyl)pyrazin-2-yl]amino}-1,2-thiazole-4-carboxamide]",0.57 µM
18,"Cc1nsc(Nc2cncc(C(F)(F)F)n2)c1C(=O)Nc1ccc(OCC2CCN(C(=O)OC(C)(C)C)CC2)nc1 [Example 226, tert-butyl 4-{[(5-{[(3-methyl-5-{[6-(trifluoromethyl)pyrazin-2-yl]amino}-1,2-thiazol-4-yl)carbonyl]amino}pyridin-2-yl)oxy]methyl}piperidine-1-carboxylate]",0.21 µM
19,"Cc1nsc(Nc2cnc(C(F)(F)F)cn2)c1C(=O)Nc1ccc(OCC2CCN(C(=O)OC(C)(C)C)CC2)nc1 [Example 227, tert-butyl 4-{[(5-{[(3-methyl-5-{[5-(trifluoromethyl)pyrazin-2-yl]amino}-1,2-thiazol-4-yl)carbonyl]amino}pyridin-2-yl)oxy]methyl}piperidine-1-carboxylate]",0.3 µM
20,"Cc1nsc(Nc2cnc(C(F)(F)F)cn2)c1C(=O)Nc1ccc(F)c(OC2CCN(C(=O)OC(C)(C)C)CC2)c1 [Example 229, tert-butyl 4-(2-fluoro-5-{[(3-methyl-5-{[5-(trifluoromethyl)pyrazin-2-yl]amino}-1,2-thiazol-4-yl)carbonyl]amino}phenoxy)piperidine-1-carboxylate]",0.36 µM
21,"Cc1nsc(Nc2cnc3ccccc3n2)c1C(=O)Nc1ccc(Oc2cccnc2)nc1 [Example 231, 3-methyl-N-[6-(pyridin-3-yloxy)pyridin-3-yl]-5-(quinoxalin-2-ylamino)-1,2-thiazole-4-carboxamide]",0.26 µM

# The next compounds have a lower IC50 than those just listed; values first:
row,IC50,Structure (SMILES)
1,0.13 µM,"Cc1nsc(Nc2cnc3ccccc3n2)c1C(=O)Nc1ccc(F)c(C(N)=O)c1 [Example 202, N-(3-carbamoyl-4-fluorophenyl)-3-methyl-5-(quinoxalin-2-ylamino)-1,2-thiazole-4-carboxamide]"
2,0.11 µM,"Cc1nsc(Nc2cncc(C(F)(F)F)n2)c1C(=O)Nc1ccc(OC2CCN(CCF)CC2)c(F)c1 [Example 223, N-(3-fluoro-4-{[1-(2-fluoroethyl)piperidin-4-yl]oxy}phenyl)-3-methyl-5-{[6-(trifluoromethyl)pyrazin-2-yl]amino}-1,2-thiazole-4-carboxamide]"
3,0.082 µM,"Cc1nsc(Nc2cc(C#N)ccn2)c1C(=O)Nc1ccc(Oc2cccc(C(F)(F)F)c2)nc1 [Example 230, 5-[(4-cyanopyridin-2-yl)amino]-3-methyl-N-{6-[3-(trifluoromethyl)phenoxy]pyridin-3-yl}-1,2-thiazole-4-carboxamide]"
4,0.076 µM,"CNC(=O)c1ccc(NC(=O)c2c(C)nsc2Nc2cnc3ccccc3n2)cc1F [Example 207, N-[3-fluoro-4-(methylcarbamoyl)phenyl]-3-methyl-5-(quinoxalin-2-ylamino)-1,2-thiazole-4-carboxamide]"
5,0.075 µM,"CC(=O)Nc1cc(NC(=O)c2c(C)nsc2Nc2cnc(C(F)(F)F)cn2)ccc1F [Example 206, N-(3-acetamido-4-fluorophenyl)-3-methyl-5-{[5-(trifluoromethyl)pyrazin-2-yl]amino}-1,2-thiazole-4-carboxamide]"
6,0.072 µM,"Cc1nsc(Nc2cnc(C(F)(F)F)cn2)c1C(=O)Nc1ccc(OCCNC(=O)OC(C)(C)C)c(F)c1 [Example 215, tert-butyl [2-(2-fluoro-4-{[(3-methyl-5-{[5-(trifluoromethyl)pyrazin-2-yl]amino}-1,2-thiazol-4-yl)carbonyl]amino}phenoxy)ethyl]carbamate]"
7,0.048 µM,"Cc1nsc(Nc2cnc(C(F)(F)F)cn2)c1C(=O)Nc1ccc(OCC2CCCN(C(=O)OC(C)(C)C)C2)nc1 (stereo not drawn) [Example 228, tert-butyl 3-{[(5-{[(3-methyl-5-{[5-(trifluoromethyl)pyrazin-2-yl]amino}-1,2-thiazol-4-yl)carbonyl]amino}pyridin-2-yl)oxy]methyl}piperidine-1-carboxylate]"
8,0.047 µM,"CNS(=O)(=O)c1ccc(NC(=O)c2c(C)nsc2Nc2cncc(C(F)(F)F)n2)cc1 [Example 211, 3-methyl-N-[4-(methylsulfamoyl)phenyl]-5-{[6-(trifluoromethyl)pyrazin-2-yl]amino}-1,2-thiazole-4-carboxamide]"
9,0.041 µM,"CNC(=O)c1ccc(NC(=O)c2c(C)nsc2Nc2ccc(C#N)cn2)cc1F [Example 208, 5-[(5-cyanopyridin-2-yl)amino]-N-[3-fluoro-4-(methylcarbamoyl)phenyl]-3-methyl-1,2-thiazole-4-carboxamide]"
